Measurements from patent US20050020544A1, “Bicyclic CB2 cannabinoid receptor ligands” (priority 2002, published 2005).

Columns and labels:
[1] = tested on: PGE2 secretion from activated RAW 264.7 macrophages; experiment: Inhibition of PGE2 in LPS activated macrophages (ELISA); type: cell-based, mouse; conditions: Mus musculus, RAW264.7; 4 hours after activation, doses 1 μM to 20 μM
Excerpt: (§1) The technique used to quantify the amount of a given protein in a liquid sample, either tissue culture supernatant or body fluid, is based on Enzyme Linked ImmunoSorbent Assay (ELISA) methodology. Either commercially available or established in house, the assay is based on the capture of the protein of interest by specific antibodies bound to the bottom of an ELISA plate well. Unbound material is washed away, the captured protein is then exposed to a secondary antibody generally labeled with horseradish peroxidase (HRP) or alkaline phosphatase (ALP). Again the unbound material is washed away, the samples are then incubated with the appropriate substrate yielding a calorimetric reaction. The reaction is stopped and reading is performed in a spectrophotometer at the appropriate wavelength. Samples are tested at least in duplicate and the appropriate standard curve, consisting of serial dilutions of the recombinant target protein, is incorporated on each plate. Concentration of the protein in the sample is calculated from the standard curve.
(§2) RAW 264.7 macrophages, a mouse cell line (ATCC # TIB-71), were grown in Dulbecco's modified Eagle's medium (DMEM) with 4 mM L-glutamine adjusted to contain 1.5 g/L sodium bicarbonate, 4.5 g/L glucose, and 10% heat inactivated fetal bovine serum. Cells were grown in tissue culture flasks and seeded at appropriate density into 24 wells tissue culture plates. 0.5×10^6 Raw cells in one milliliter were stimulated with 2 μg/ml Lipopolysaccharide E. coli 055:B5 (DIFCO Laboratories). The mouse macrophages were pre-treated for one hour with controls or 10 μM of bicyclic CB2 ligands and later on activated with LPS. Dexamethasone was used as a positive control at 50 nM. Supernatant was collected 4 hours (for PGE2) and 24 hours (for IL-1β and TNF-α) after activation, and the levels of the inflammatory agent under study were determined by ELISA, as previously described. Inhibition was calculated versus vehicle treated cells.
The activation of the macrophages is performed as previously described. The levels of PGE2 are measured in an ELISA assay as previously described. Inhibition is calculated versus vehicle treated cells. […] Results are depicted in FIG. 2B.

[2] = tested on: TNF-α secretion from activated RAW 264.7 macrophages; experiment: Inhibition of TNF-α in LPS activated macrophages (ELISA); type: cell-based, mouse; conditions: doses up to 20 μM
Excerpt: as §1, §2
The activation of the macrophages is performed as previously described. The levels of TNF-α are measured in an ELISA assay as previously described. Inhibition is calculated versus vehicle treated cells.

Male Sprague Dawley rats = experiment: Inflammatory pain: carrageenan paw edema in rats, thermal and mechanical stimuli; type: in vivo, rat; conditions: 10 mg/kg i.p., three hours
Experimental: Male Sprague Dawley rats (200 g average body weight, Harlan, Israel) are transiently sedated by placement on dry ice for the duration of the injections. […] Before induction of inflammatory pain and three hours after injection, the animals reactions to pain stimuli were tested in two systems. The first stimulus was thermal and assessed by the Plantar Test according to Hargreaves, using Ugo Basile Model 7370. The scale was set to an intensity of 50 arbitrary units. The latency time till the animal lift a paw as a reaction to the thermal stimulus was recorded for both the inflamed and non-inflamed hind paws. The second stimulus was mechanical (tactile) and assessed using a Dynamic Plantar Sesthesiomether (Ugo Basile Model 73400-002).
The results are measured as the differences between the two hind paws at time 0 and 3 hours both as ALT, for the latency time in the thermal part of the study, and as ΔForce, for the mechanical part of the study.

human CB2 receptor [3] = molecular target: T1, human CB2 receptor (Homo sapiens, UniProt P34972); experiment: biochemical; type: binding; set-up: purchased Perkin Elmer/NEN; host or cells: CHO cells, stably transfected (membranes); conditions: for CB2/CB1 affinity ratio: IC50 CB1/IC50 CB2; for IC50: displacement of [3H]WIN 55212-2, hCB2 CHO membranes
Experimental: (§3) In the present invention, binding affinity is represented by the IC50 value, namely the concentration of a test compound that will displace 50% of a radiolabeled agonist from the CB receptors. […] Preferably these ratios will be obtained for human CB1 and CB2 receptors. The selectivity toward CB2, denoted CB2/CB1 affinity, is calculated as the IC50 value obtained by the test compound for the displacement of the CB1 specific radioligand divided by the IC50 value obtained for the displacement of the CB2 specific radioligand, i.e. the IC50 CB1/IC50 CB2.
The affinities of the novel bicyclic analogs to the CB2 receptor were determined by their ability to displace [^3H]WIN 55212-2 from the receptor in membranes derived from hCB2 stably transfected CHO cells (Perkin Elmer/NEN). Membranes were diluted in assay buffer (10 mM HEPES, 1 mM MgCl2, 1 mM EDTA, 0.3 mg/ml BSA, pH=7.4) to 500 μg protein/ml. 50 μl of diluted membranes (25 μg) were incubated with 0.8 nM of [^3H]WIN 55212-2 in the presence or absence of several concentrations of the bicyclic test compounds in a total volume of 1 ml. Tested compounds were dissolved and diluted as previously described for the hCB1 assay. Non-specific binding was measured by the addition of 10 μM CP 55940. Following 40 minutes incubation at 30° C. reactions were filtered as previously described. Filters for all binding assays were counted in a β-counter and log of analog concentration versus % of binding was plotted. IC50 values were extrapolated from this plot.
(§4) Binding to CB1 is measured by competitive inhibition of [^3H]CP55940 in HEK-293 cells stably transfected with the human CB1 receptor gene. Binding to CB2 is measured by competitive inhibition of [^3H]WIN55212-2 in CHO cells stably transfected with the human CB2 receptor gene.

ICR male mice = experiment: Tail flick model for acute peripheral pain, i.p.; type: in vivo, mouse; conditions: 10 mg/kg i.p., 330 minutes (five and a half hours)
Experimental: ICR male mice (20-30 g average body weight, Harlan, Israel) were injected i.p. at the volume dose of 5 ml/kg. Each treatment group contained at least 6 animals. Morphine HCl was used as positive control at the final dose of 5 mg/kg. Its vehicle, saline, was also included as control. The test compounds were dissolved in CREMOPHOR EL®:ethanol and diluted 1:20 in saline prior to injection, this second type of vehicle was also included as negative control. The final dose injected varied from 0.1 to 10 mg/kg. At predetermined time points after treatment injection, the animals were placed in the tail flick system (Socrel, model DS 20). Animals were gently held while their tails were located above the photoelectric cell. The tails were then illuminated (21V) at 2 cm from the distal tip and the latency time, measured in seconds, was recorded in duplicates. At the end of the study, the animals were euthanized by i.p. injection of 100 mg/kg sodium pentobarbitone.
Two parameters were used to analyze the results, the latency time and the % of animals showing analgesia. […] The results in both cases are expressed as mean±SE. The differences between the latency times or the % of animals showing analgesia among various treatment groups was analyzed by analysis of variance (ANOVA) followed by post-hoc Tukey's test (for latency) or Fisher's exact test (for % animals). A value of p<0.05 is considered to be statistically significant.

human CB1 receptor = molecular target: T2, human CB1 receptor (Homo sapiens, UniProt P21554); experiment: biochemical; type: binding; conditions: displacement of [3H]CP55940, hCB1 HEK-293 membranes; read-out: CB1 IC50
T2 construct: purchased Perkin Elmer/NEN; host or cells: HEK-293 cells, stably transfected (membranes)
Experimental: as §3
The CB1 binding assays were performed by testing the ability of the new compounds to displace [^3H]CP55940 from the CB1 receptor on membranes derived from hCB1 stably transfected HEK-293 cells (Perkin Elmer/NEN). Membranes were diluted in the assay buffer (50 mM Tris-HCl, 2.5 mM EDTA, 5 mM MgCl2, 1 mg/ml BSA, pH=7.4) to 500 μg protein/ml. 50 μl of diluted membranes (25 μg) were incubated with [^3H]CP55940 in the presence or absence of the bicyclic test compounds in a total volume of 0.5 ml. Tested compounds were dissolved in DMSO and diluted in the assay buffer to a final concentration of 0.1% solvent. Control samples were added with identical amount of vehicle. Non-specific binding was measured by the addition of 10 μM of WIN 55212-2. Following 1.5 hours incubation at 30° C. reactions were filtered through Whatman 934A/H filters (presoaked with 0.1% Polyethylenimine (PEI)).
as §4

human CB2 receptor [4] = molecular target: T1, human CB2 receptor; experiment: Adenylylcyclase assay: forskolin-activated cAMP in CB2 transfected HEK-293 cells; type: cell-based; conditions: CB2 receptor transfected HEK-293, 1 μM forskolin
Experimental: Cannabinoids and derivatives bind to G-protein-coupled CB1 and CB2 receptors and exert their activity via the inhibition of adenylylcyclase activity. An adenylylcyclase assay forms a basis for the functional analysis of the compounds by determining their capacity to inhibit or promote forskolin-activated cAMP production. The assay is carried out according to Chin et al. (Chin, C. N. et al., J. Neurochem. 70: 366-73, 1998). Briefly, HEK-293 human kidney cells (ATCC#CRL-1573) stably transfected with either the human CB1 or CB2 receptor (cDNA) were grown in DMEM supplemented with 10% fetal calf serum, 1% Penicillin-Streptomycin and 2 mM L-glutamine. Cells were seeded in 24 wells plate at 5×10^4 cells/well and incubated for 48 hours. Medium was then removed and the adherent cells were washed with PBS. Two hundred μl of serum free medium supplemented with 0.2 mM Ro 20-1724, 0.25% BSA, and 20 mM HEPES was then added to each well. The cells were then activated with 1 μM forskolin in presence of the bicyclic test compounds in concentrations ranging from 10 pM up to 1 μM. The activated cells were then incubated at 37° C. for 20 minutes and the reaction terminated with 1.2 M HCl to a final concentration of 0.1 M. Cells were lyzed by freeze and thaw and the lysate was neutralized with 2 M HEPES, pH 7.5. cAMP was measured in 50 μl aliquots using the [^3H]-cAMP assay system (Amersham).
This experiment was first performed on CB2 receptor transfected cells.

Lewis rats = type: in vivo, rat; conditions: 30 mg/kg i.v., 5 times before the disease onset
Experimental: Various animal models of autoimmune encephalomyelitis are known in the art, depending on the method of induction, the strain of the animal and the antigen employed to induce the disease. The impact of bicyclic CB2 ligands was tested in EAE using Lewis rats in which the onset of disease is observed by the appearance of clinical symptoms about 10 days after induction. The disease progress and the clinical score increase and peak around day 15 and spontaneous recovery is observed around day 18 after induction of the disease. The animals (at least 9 per test group at initiation of study, except for the untreated control group that comprised only 5 rats) were maintained on a 12 hours light/12 hours dark regimen, at a constant temperature of 22° C., with food and water ad libitum. EAE was induced in these animals by immunization with s.c. injection to the hind paws of 25 μg of purified guinea pig myelin basic protein (MBP, Sigma) emulsified in 0.1 ml of Complete Freund's Adjuvant (Difco).
Methylprednisolone was used as positive control and it was administered daily for 5 consecutive days i.v. at 30 mg/kg starting from day of disease induction by MBP injection. The results are recorded as clinical score; score of 0 indicates a normal animal with no clinical signs, 0.5 indicates a loss of tonicity in the tail's distal part, 1 indicates whole tail paralysis, 2 indicates paraplegia, 3 indicates quadriplegia, 4 indicates complete body paralysis and moribund state and 5 indicates death. The clinical score of the animals is recorded for 11 days following onset of disease and the area under the curve (AUC) is calculated over this period of time.
Moreover, in a separate study animals were euthanized 15 days after induction of the disease by i.p. injection of 100 mg/kg pentobarbital. Brains and spinal cord were removed and were fixed by overnight incubation with 4% Paraformaldehyde. The cervical segment of the spinal cord was dehydrated using ethanol solutions of increasing concentration and then embedded in paraplast. The spinal cord was then sectioned (10 μm) and staining was performed using hematoxylin and eosin. The stained slides were examined under light microscopy for foci of infiltrating lymphocytes. Number of foci were counted and averaged in 6 sections for each animal. Three groups of at least 4 animals each were tested in this system: untreated, vehicle treated, and animals treated with 0.5 mg/kg of compound A. Results are expressed as average±SD of number of foci.

T2 sequence (P21554 whole entry): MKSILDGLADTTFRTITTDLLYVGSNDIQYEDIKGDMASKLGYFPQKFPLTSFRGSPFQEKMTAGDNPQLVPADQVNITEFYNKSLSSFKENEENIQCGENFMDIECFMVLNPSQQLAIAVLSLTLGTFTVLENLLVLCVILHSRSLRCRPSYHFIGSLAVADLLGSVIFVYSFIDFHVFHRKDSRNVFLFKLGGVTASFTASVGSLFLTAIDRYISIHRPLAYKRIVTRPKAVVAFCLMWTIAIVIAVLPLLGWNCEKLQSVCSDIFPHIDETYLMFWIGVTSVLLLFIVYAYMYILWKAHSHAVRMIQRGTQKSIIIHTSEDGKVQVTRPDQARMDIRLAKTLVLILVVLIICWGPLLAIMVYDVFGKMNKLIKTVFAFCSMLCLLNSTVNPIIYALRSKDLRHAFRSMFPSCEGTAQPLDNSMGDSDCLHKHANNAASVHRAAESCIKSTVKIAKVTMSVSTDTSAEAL
T1 sequence (P34972 whole entry): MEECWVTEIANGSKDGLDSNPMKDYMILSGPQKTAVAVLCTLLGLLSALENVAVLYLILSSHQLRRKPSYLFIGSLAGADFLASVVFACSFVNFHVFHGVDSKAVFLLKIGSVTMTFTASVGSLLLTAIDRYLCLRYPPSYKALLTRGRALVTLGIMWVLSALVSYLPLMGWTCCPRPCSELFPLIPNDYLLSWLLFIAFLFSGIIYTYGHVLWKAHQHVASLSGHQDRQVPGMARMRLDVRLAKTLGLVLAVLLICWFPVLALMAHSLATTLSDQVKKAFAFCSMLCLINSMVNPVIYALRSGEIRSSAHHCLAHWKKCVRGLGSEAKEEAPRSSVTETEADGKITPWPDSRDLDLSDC

| SMILES | IC50 [1] | effect on TNF-α secretion [2] | ΔForce (tactile stimulus) (Male Sprague Dawley rats) | ΔLT (thermal stimulus) (Male Sprague Dawley rats) | CB2/CB1 affinity ratio (human CB2 receptor [3]) | IC50 (human CB2 receptor [3]) | % animals showing increased analgesia (ICR male mice) | latency time (ICR male mice) | IC50 (human CB1 receptor) | IC50 (human CB2 receptor [4]; read-out: IC50 inhibition of cAMP level) | inhibition at 1 µM (human CB2 receptor [4]; HEK293, read-out: % inhibition at 1 μM) | reduction in the AUC of the clinical score (Lewis rats) |
| --- | --- | --- | --- | --- | --- | --- | --- | --- | --- | --- | --- | --- |
| CC(C)(CCCCBr)c1cc(O)c(C2CC(=O)C3CC2C3(C)C)c(O)c1 (single isomer, unassigned; (-)) [Compound N, (−)-4-[4-(5-Bromo-1,1-Dimethyl-pentyl)-2,6-dihydroxy-phenyl]-6,6-dimethyl-bicyclo[3.1.1]heptan-2-one] | 7000 nM | none of them did significantly affect TNF-α secretion | 6 g | 2 s | 139 | 0.36 nM | about 60% | 5.4 s | 50 nM |  |  |  |
| CC(C)(CCCCC#N)c1cc(O)c([C@H]2CC(=O)[C@H]3C[C@@H]2C3(C)C)c(O)c1 [Compound P, (−)-4-[4-(1,1-Dimethyl-pentyl-5-nitrile)-2,6-dihydroxy-phenyl]-6,6-dimethyl-bicyclo[3.1.1]heptan-2-one] | 18000 nM | none of them did significantly affect TNF-α secretion |  |  | 146 | 1.55 nM |  |  | 227 nM |  |  |  |
| CCCCCCC(C)(C)c1cc(OC(=O)CCC(=O)O)c([C@H]2CC(=O)[C@H]3C[C@@H]2C3(C)C)c(OC(=O)CCC(=O)O)c1 [Compound S, 4-{4-[1,1-Dimethyl-heptyl]-2,6-bisuccinate-phenyl}-6,6-dimethyl-bicyclo[3.1.1]heptan-2-one] |  |  |  |  | 77 | 1.52 nM |  |  | 117 nM | 0.16 nM | 58% |  |
| C[C@H]1C[C@@H]2[C@H]([C@@H](O)C[C@@]3(C)[C@H]2CC[C@]3(O)C(=O)CO)[C@@]2(C)C=CC(=O)C=C12 [Methylprednisolone, reference compound] |  |  |  |  |  |  |  |  |  |  |  | 34% |
